This is an account of results in publication PMC9583322, “Vicinal Diaryl-Substituted Isoxazole and Pyrazole Derivatives with In Vitro Growth Inhibitory and In Vivo Antitumor Activity” (ACS Omega, 2022).

One series concerns MCF7. Kind of series: SRB cytotoxicity assay. Format: cell-based, human. The note with it: 72 h treatment. The protocol: (§1) HepG2, FOCUS, Hep3B, Mahlavu, Huh7, Hep40, and PLC-PRF-5 hepatocellular carcinoma cells; MCF-7, MDA-MB-231, MDA-MB-468, SKBR3, and ZR-75 breast cancer cells; and normal-like epithelial MCF-10A breast cells were cultured in low-glucose Dulbecco’s modified Eagle’s medium (DMEM) (Biological Industries-BI) supplemented with 10% fetal bovine serum (FBS) (Gibco/Thermo Fisher Scientific), 2 mM L-Glutamine (Gibco/Thermo Fisher Scientific), 100 Units/mL Penicillin/Streptomycin, and 0.1 mM non-essential amino acid (Gibco/Thermo Fisher Scientific). SNU475 hepatocellular carcinoma cells were maintained in RPMI (Biological Industries-BI) supplemented with 10% fetal bovine serum (FBS) (Gibco/Thermo Fisher Scientific), L-Glutamine (Gibco/Thermo Fisher Scientific), and 100 Units/mL Penicillin/Streptomycin, while ZR-75 breast cancer cells were cultured RPMI (Biological Industries-BI) supplemented with 10% fetal bovine serum (FBS) (Gibco/Thermo Fisher Scientific), 1× sodium pyruvate, and %4.5 glucose. Normal-like MCF-10A breast cells were sustained in DMEM/HAM’S F12 (Hyclone) supplemented with 10% fetal bovine serum (FBS) (Gibco/Thermo Fisher Scientific), EGF (20 ng/mL), Hydrocortisone ([…]), cholera toxin (100 ng/mL), insulin (10 μg/mL), and 100 Units/mL Penicillin/Streptomycin. The cells were cultivated at 37 °C in a humidified incubator under 5% CO2.
(§2) Mahlavu, FOCUS, SNU475 (1000 cell/well in 150 μL/well); Huh7, MCF7 (2500 cell/well in 150 μL/well); HepG2, Hep3B, SKBR3 (3000 cell/well in 150 μL/well); PLC-PRF-5, Hep40 (5000 cell/well in 150 μL/well); MDA-MB-231, MDA-MB-468, MCF10A (6000 cell/well in 150 μL/well); and ZR-75 (7500 cell/well in 150 μL/well) were cultured in 96-well plates and were inoculated in an incubator for 24 hours. The compounds were dissolved in dimethyl sulfoxide (DMSO) (Sigma, St Louis, MO) as a 20 mM stock solution. The treatment of cells with the compounds was done in a concentration range starting from 40 to 2.5 μM. The compounds which were below 2.5 μM were tested in a concentration range from 2.5 to 0.15 μM. End of the 72h compound treatment, the cells were fixed using 10% (v/v) trichloroacetic acid (MERCK) for an hour and washed with ddH2O, and left for air-drying. The fixed plates were stained with 50 μL of sulforhodamine B (SRB) solution (Sigma) at RT for 10 min. To remove unbound SRB dye, acetic acid was used to wash cells three times and left for drying. The protein-bound SRB was solubilized with 10 mM Tris-base (Sigma) and their absorbance was measured with a 96-well plate reader at 515 nm wavelength (ELx800, Biotek). The IC50 values of compounds were calculated in comparison with control group DMSO. Data with R^2 values larger than 0.9 are considered significant.

The test system of the next series is Huh7. The series can be described thus: SRB cytotoxicity assay. To be noted: 72 h treatment. Type of series: cell-based, human. On the procedure:
as §1, §2

With “5-Methyl-4-(2,4-difluoromethylphenyl)-3-(4-((2-methylbenzyl)oxy)phenyl)isoxazole [compound 52]”, the 50% inhibitory concentration (IC50) in the series on MCF7 is greater than 20 µM; with Huh7, 15 µM.

Turning to “5-Methyl-4-(3-fluoromethylphenyl)-3-(4-((2-methylbenzyl)oxy)phenyl)isoxazole [compound 50]”, the half-inhibitory concentration (IC50) in the series on MCF7 was greater than 20 µM; with Huh7 it was 15 µM.

In the case of `COc1ccccc1COc1ccc(-c2noc(C)c2-c2ccc(Cl)cc2)cc1` [compound 12, 4-(4-Chlorophenyl)-3-(4-((2-methoxybenzyl)oxy)phenyl)-5-methylisoxazole], the melting point fell in the range of 156.8 to 157.7 °C. For the same compound, the 50% inhibitory concentration (IC50) in the series with MCF7 (Homo sapiens, MCF7, 72 h) was greater than 20 µM. The compound further displayed an IC50 with Huh7 (Homo sapiens, Huh-7, 72 h) greater than 20 µM.

Regarding `Cc1onc(-c2ccc(OCc3ccccc3OC(F)(F)F)cc2)c1-c1ccc(Cl)cc1` [compound 13, 4-(4-Chlorophenyl)-5-methyl-3-(4-((2-(trifluoromethoxy)benzyl)oxy)phenyl)isoxazole], the melting point lay in the range of 85.8 to 86.7 °C. The IC50 in the series on MCF7 (Homo sapiens, MCF7, 72 h) was greater than 20 µM. Further, in the series with Huh7 (Homo sapiens, Huh-7, 72 h), the 50% inhibitory concentration (IC50) was 16.3 µM.

`Cc1onc(-c2ccc(OCc3ccccc3OC(F)F)cc2)c1-c1ccc(Cl)cc1` [compound 14, 4-(4-Chlorophenyl)-3-(4-((2-(difluoromethoxy)benzyl)oxy)phenyl)-5-methylisoxazole] showed a melting point of 95.5 to 96.9 °C. Also, the concentration for half-maximal inhibition (IC50) in the series with MCF7 (Homo sapiens, MCF7, 72 h) stood at 8.5 µM. Besides, the IC50 in the series with Huh7 (Homo sapiens, Huh-7, 72 h) is 13.8 µM.

Consider `Cc1onc(-c2ccc(OCc3ccccc3F)cc2)c1-c1ccc(Cl)cc1` [compound 15, 4-(4-Chlorophenyl)-3-(4-((2-fluorobenzyl)oxy)phenyl)-5-methylisoxazole], for which the melting point was 119.5 to 120.9 °C. The compound further came in with a concentration for half-maximal inhibition (IC50) in the series on MCF7 (Homo sapiens, MCF7, 72 h) greater than 20 µM. In the series with Huh7 (Homo sapiens, Huh-7, 72 h), this compound showed a 50% inhibitory concentration (IC50) greater than 20 µM.

`Cc1onc(-c2ccc(OCc3ccccc3Cl)cc2)c1-c1ccc(Cl)cc1` [compound 16, 4-(4-Chlorophenyl)-3-(4-((2-chlorobenzyl)oxy)phenyl)-5-methylisoxazole] showed a melting point of 105.2 to 106.4 °C. Also, in the series on MCF7 (Homo sapiens, MCF7, 72 h), the IC50 is greater than 20 µM. The compound further gave an IC50 in the series on Huh7 (Homo sapiens, Huh-7, 72 h) of 20 µM.

As for `Cc1onc(-c2ccc(OCc3ccccc3C#N)cc2)c1-c1ccc(Cl)cc1` [compound 17, 2-((4-(4-(4-Chlorophenyl)-5-methylisoxazol-3-yl)phenoxy)methyl)benzonitrile], the melting point is 111.2 to 112.5 °C. In the series on MCF7 (Homo sapiens, MCF7, 72 h), this compound had an IC50 greater than 20 µM. In the series on Huh7 (Homo sapiens, Huh-7, 72 h), the IC50 was greater than 20 µM.

In turn, `Cc1onc(-c2ccc(OCc3ccccc3C(F)(F)F)cc2)c1-c1ccc(Cl)cc1` [compound 18, 4-(4-Chlorophenyl)-5-methyl-3-(4-((2-(trifluoromethyl)benzyl)oxy)phenyl)isoxazole] yielded a melting point of 132.8 to 134.4 °C. Moreover, in the series on MCF7 (Homo sapiens, MCF7, 72 h), the IC50 is greater than 20 µM. The compound also displayed an IC50 in the series with Huh7 (Homo sapiens, Huh-7, 72 h) of 14.2 µM.

The compound `COc1cccc(COc2ccc(-c3noc(C)c3-c3ccc(Cl)cc3)cc2)c1` [compound 20, 4-(4-Chlorophenyl)-3-(4-((3-methoxybenzyl)oxy)phenyl)-5-methylisoxazole] registered a melting point of 105.1 to 106.8 °C. Further, the IC50 in the series with MCF7 (Homo sapiens, MCF7, 72 h) is 12 µM. In addition, the IC50 in the series on Huh7 (Homo sapiens, Huh-7, 72 h) turned out to be 3.6 µM.

Consider `Cc1onc(-c2ccc(OCc3cccc(F)c3)cc2)c1-c1ccc(Cl)cc1` [compound 21, 4-(4-Chlorophenyl)-3-(4-((3-fluorobenzyl)oxy)phenyl)-5-methylisoxazole], for which the melting point lay within 98.1 to 99.8 °C. The same compound yielded a half-inhibitory concentration (IC50) in the series with MCF7 (Homo sapiens, MCF7, 72 h) greater than 20 µM. For the same compound, the IC50 in the series on Huh7 (Homo sapiens, Huh-7, 72 h) was greater than 20 µM.

In the case of `Cc1onc(-c2ccc(OCc3cccc(C#N)c3)cc2)c1-c1ccc(Cl)cc1` [compound 22, 3-((4-(4-(4-Chlorophenyl)-5-methylisoxazol-3-yl)phenoxy)methyl)benzonitrile], the melting point was 114.4 to 115.6 °C. This compound registered a half-inhibitory concentration (IC50) with MCF7 (Homo sapiens, MCF7, 72 h) greater than 20 µM. In the series with Huh7 (Homo sapiens, Huh-7, 72 h), the 50% inhibitory concentration (IC50) came to 20.7 µM.

In the case of `COC(=O)c1cccc(COc2ccc(-c3noc(C)c3-c3ccc(Cl)cc3)cc2)c1` [compound 23, Methyl-3-((4-(4-(4-chlorophenyl)-5-methylisoxazol-3-yl)phenoxy)methyl)benzoate], the melting point lay in the range of 121.5 to 122.8 °C. This compound returned an IC50 with MCF7 (Homo sapiens, MCF7, 72 h) of 13 µM. Besides, the concentration for half-maximal inhibition (IC50) in the series with Huh7 (Homo sapiens, Huh-7, 72 h) is greater than 20 µM.

Consider `COc1ccc(COc2ccc(-c3noc(C)c3-c3ccc(Cl)cc3)cc2)cc1` [compound 25, 4-(4-Chlorophenyl)-3-(4-((4-methoxybenzyl)oxy)phenyl)-5-methylisoxazole], for which the melting point lay within 126.1 to 127.4 °C. This compound also had a concentration for half-maximal inhibition (IC50) in the series on MCF7 (Homo sapiens, MCF7, 72 h) greater than 20 µM. In addition, the IC50 with Huh7 (Homo sapiens, Huh-7, 72 h) was greater than 20 µM.

Turning to `Cc1onc(-c2ccc(OCc3ccc(F)cc3)cc2)c1-c1ccc(Cl)cc1` [compound 26, 4-(4-Chlorophenyl)-3-(4-((4-fluorobenzyl)oxy)phenyl)-5-methylisoxazole], the melting point was 99.3 to 100.7 °C. For the same compound, the IC50 with MCF7 (Homo sapiens, MCF7, 72 h) came out at 13 µM. In addition, in the series on Huh7 (Homo sapiens, Huh-7, 72 h), the IC50 came out at 19 µM.

`Cc1onc(-c2ccc(OCc3ccc(C#N)cc3)cc2)c1-c1ccc(Cl)cc1` [compound 27, 4-((4-(4-(4-Chlorophenyl)-5-methylisoxazol-3-yl)phenoxy)methyl)benzonitrile] displayed a melting point of 138.5 to 139.5 °C. The compound also displayed an IC50 with MCF7 (Homo sapiens, MCF7, 72 h) greater than 20 µM. In addition, the concentration for half-maximal inhibition (IC50) with Huh7 (Homo sapiens, Huh-7, 72 h) is 11.7 µM.

In turn, `COC(=O)c1ccc(COc2ccc(-c3noc(C)c3-c3ccc(Cl)cc3)cc2)cc1` [compound 28, Methyl-4-((4-(4-(4-chlorophenyl)-5-methylisoxazol-3-yl)phenoxy)methyl)benzoate] gave a melting point of 110.7 to 111.9 °C. Further, in the series on MCF7 (Homo sapiens, MCF7, 72 h), the IC50 was greater than 20 µM. The compound also came in with a half-inhibitory concentration (IC50) in the series on Huh7 (Homo sapiens, Huh-7, 72 h) of 12.7 µM.

On to `Cc1onc(-c2ccc(OCc3ccc(C(=O)O)cc3)cc2)c1-c1ccc(Cl)cc1` [compound 29, 4-((4-(4-(4-Chlorophenyl)-5-methylisoxazol-3-yl)phenoxy)methyl)benzoic acid], for which the melting point was 210.8 to 212.4 °C. 15 µM corresponded to half-maximal inhibition with MCF7 (Homo sapiens, MCF7, 72 h) (IC50). The concentration for half-maximal inhibition (IC50) in the series on Huh7 (Homo sapiens, Huh-7, 72 h) is 8.6 µM.

The compound `Cc1cccc(COc2ccc(-c3noc(C)c3-c3ccc(Cl)cc3)cc2)c1C` [compound 30, 4-(4-Chlorophenyl)-3-(4-((2,3-dimethylbenzyl)oxy)phenyl)-5-methylisoxazole] gave a melting point of 167.2 to 168.5 °C. The IC50 in the series with MCF7 (Homo sapiens, MCF7, 72 h) is greater than 20 µM. In the series with Huh7 (Homo sapiens, Huh-7, 72 h), this compound yielded an IC50 of 15.3 µM.

In turn, `Cc1ccc(COc2ccc(-c3noc(C)c3-c3ccc(Cl)cc3)cc2)c(C)c1` [compound 31, 4-(4-Chlorophenyl)-3-(4-((2,4-dimethylbenzyl)oxy)phenyl)-5-methylisoxazole] had a melting point of 119.7 to 122.1 °C. The compound also gave an IC50 with MCF7 (Homo sapiens, MCF7, 72 h) greater than 20 µM. For the same compound, the midpoint of inhibition in the series with Huh7 (Homo sapiens, Huh-7, 72 h), the IC50, lay at 10.8 µM.

The compound `Cc1onc(-c2ccc(OCc3cccnc3)cc2)c1-c1ccc(Cl)cc1` [compound 32, 4-(4-Chlorophenyl)-5-methyl-3-(4-(pyridin-3-ylmethoxy)phenyl)isoxazole] yielded a melting point of 115.5 to 116.4 °C. Besides, in the series on MCF7 (Homo sapiens, MCF7, 72 h), the IC50 was determined as 8.3 µM. This compound also yielded a 50% inhibitory concentration (IC50) with Huh7 (Homo sapiens, Huh-7, 72 h) of 7.7 µM.

As for `Cc1onc(-c2ccc(OCc3ccncc3)cc2)c1-c1ccc(Cl)cc1` [compound 33, 4-(4-Chlorophenyl)-5-methyl-3-(4-(pyridin-4-ylmethoxy)phenyl)isoxazole], the melting point fell in the range of 124.2 to 125.8 °C. Inhibition in the series with MCF7 (Homo sapiens, MCF7, 72 h) was half-maximal at 14.5 µM (IC50). The half-inhibitory concentration (IC50) in the series with Huh7 (Homo sapiens, Huh-7, 72 h) came to 11.4 µM.

Turning to `Cc1onc(-c2ccc(OCc3ccc4ccccc4n3)cc2)c1-c1ccc(Cl)cc1` [compound 34, 4-(4-Chlorophenyl)-5-methyl-3-(4-(quinolin-2-ylmethoxy)phenyl)isoxazole], the melting point is 164.7 to 165.8 °C. The IC50 in the series with MCF7 (Homo sapiens, MCF7, 72 h) was greater than 20 µM. In the series on Huh7 (Homo sapiens, Huh-7, 72 h), this compound displayed a half-inhibitory concentration (IC50) of 9.1 µM.

Regarding `Cc1ncccc1COc1ccc(-c2noc(C)c2-c2ccc(Cl)cc2)cc1` [compound 35, 4-(4-Chlorophenyl)-5-methyl-3-(4-((2-methylpyridin-3-yl)methoxy)phenyl)isoxazole], the melting point is 107.2 to 108.8 °C. For the same compound, in the series on MCF7 (Homo sapiens, MCF7, 72 h), 6.1 µM corresponded to half-maximal inhibition (IC50). Further, inhibition in the series on Huh7 (Homo sapiens, Huh-7, 72 h) was half-maximal at 3.9 µM (IC50).
